Experimental data published in ChEMBL document CHEMBL5042544, “Discovery of a Potent and Selective ATAD2 Bromodomain Inhibitor with Antiproliferative Activity in Breast Cancer Models” (J Med Chem, 2022).
Activity calls are given as the source filed them. No cut-off for these calls is given here.

Assays:
[1] = molecular target: T1, ATPase family AAA domain-containing protein 2 (Homo sapiens, UniProt Q6PL18); test: Inhibition of GST-ATAD2 BD (951 to 1132 residues) (unknown origin) expressed in Escherichia coli BL21 (DE3) and biotinylated tetra-acetylated histone H4 peptides as substrate incubated for 30 mins by TR-FRET assay
T1 sequence (Q6PL18 whole entry): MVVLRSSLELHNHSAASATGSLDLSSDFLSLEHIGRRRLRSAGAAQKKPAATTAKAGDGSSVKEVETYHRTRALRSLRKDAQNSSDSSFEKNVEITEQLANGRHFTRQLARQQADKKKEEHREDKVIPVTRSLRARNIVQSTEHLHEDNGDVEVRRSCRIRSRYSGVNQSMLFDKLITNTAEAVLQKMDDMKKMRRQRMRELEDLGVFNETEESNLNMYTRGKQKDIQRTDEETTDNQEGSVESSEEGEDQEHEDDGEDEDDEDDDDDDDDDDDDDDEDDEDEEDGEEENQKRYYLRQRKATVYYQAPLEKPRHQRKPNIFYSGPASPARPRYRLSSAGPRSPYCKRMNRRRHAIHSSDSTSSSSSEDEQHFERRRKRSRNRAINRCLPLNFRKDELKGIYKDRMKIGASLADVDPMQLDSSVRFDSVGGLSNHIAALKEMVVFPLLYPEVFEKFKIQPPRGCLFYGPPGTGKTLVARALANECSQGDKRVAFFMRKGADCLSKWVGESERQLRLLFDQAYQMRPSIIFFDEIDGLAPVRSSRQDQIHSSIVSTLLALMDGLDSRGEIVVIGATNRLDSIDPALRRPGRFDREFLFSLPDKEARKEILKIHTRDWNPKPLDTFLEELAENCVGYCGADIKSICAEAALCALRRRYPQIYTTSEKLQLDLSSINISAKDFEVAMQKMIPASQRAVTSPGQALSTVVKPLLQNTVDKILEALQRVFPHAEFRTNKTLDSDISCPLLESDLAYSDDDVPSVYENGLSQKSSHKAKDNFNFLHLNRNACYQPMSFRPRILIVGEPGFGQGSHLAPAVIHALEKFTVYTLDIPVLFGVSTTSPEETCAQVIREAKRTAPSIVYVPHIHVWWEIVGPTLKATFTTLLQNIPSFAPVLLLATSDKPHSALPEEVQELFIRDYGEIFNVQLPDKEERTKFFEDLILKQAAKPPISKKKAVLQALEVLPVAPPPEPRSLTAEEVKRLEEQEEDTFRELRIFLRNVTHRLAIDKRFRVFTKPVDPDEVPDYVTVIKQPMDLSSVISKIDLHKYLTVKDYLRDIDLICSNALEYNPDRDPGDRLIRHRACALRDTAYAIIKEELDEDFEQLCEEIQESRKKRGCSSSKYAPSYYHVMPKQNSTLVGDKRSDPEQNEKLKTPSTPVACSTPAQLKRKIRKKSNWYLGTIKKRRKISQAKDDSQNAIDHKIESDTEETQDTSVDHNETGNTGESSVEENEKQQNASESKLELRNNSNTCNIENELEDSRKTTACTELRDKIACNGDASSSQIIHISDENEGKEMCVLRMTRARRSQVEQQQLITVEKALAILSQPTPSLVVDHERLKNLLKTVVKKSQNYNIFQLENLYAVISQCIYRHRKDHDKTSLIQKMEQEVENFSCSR

[2] = molecular target: T1, ATPase family AAA domain-containing protein 2; test: Inhibition of GST-ATAD2 BD (951 to 1132 residues) (unknown origin) expressed in Escherichia coli BL21 (DE3) and biotinylated tetra-acetylated histone H4 peptides as substrate by TR-FRET artifact assay
[3] = molecular target: Bromodomain-containing protein 4 (Homo sapiens, UniProt O60885); test: Displacement of Halo-tagged Histone H3.3 from Nanoluc-BRD4 BD1/BD2 (44 to 460 residues) (unknown origin) transfected in human HCT116 cells incubated for 18 hrs by NanoBRET assay; format: cell-based, HCT-116
[4] = molecular target: Bromodomain-containing protein 2 (Homo sapiens, UniProt P25440); test: Binding affinity to human BRD2 bromodomain 1 assessed as residual activity at 300 nM by BROMOscan method relative to control
[5] = molecular target: Bromodomain-containing protein 7 (Homo sapiens) (UniProt Q9NPI1); test: Binding affinity to human BRD7 bromodomain assessed as residual activity at 300 nM by BROMOscan method relative to control
[6] = molecular target: Bromodomain testis-specific protein (Homo sapiens, UniProt Q58F21); test: Binding affinity to human BRDT bromodomain 1 assessed as residual activity at 300 nM by BROMOscan method relative to control
Peregrin (Homo sapiens) = Peregrin (Homo sapiens) (UniProt P55201); test: Binding affinity to human […] bromodomain assessed as residual activity at 300 nM by BROMOscan method relative to control
[7] = molecular target: T2, Chromatin remodeling regulator CECR2 (Homo sapiens, UniProt Q9BXF3); test: Binding affinity to human CECR2 bromodomain assessed as residual activity at 300 nM by BROMOscan method relative to control
Target sequence in this assay (Q9BXF3 whole entry, looked up): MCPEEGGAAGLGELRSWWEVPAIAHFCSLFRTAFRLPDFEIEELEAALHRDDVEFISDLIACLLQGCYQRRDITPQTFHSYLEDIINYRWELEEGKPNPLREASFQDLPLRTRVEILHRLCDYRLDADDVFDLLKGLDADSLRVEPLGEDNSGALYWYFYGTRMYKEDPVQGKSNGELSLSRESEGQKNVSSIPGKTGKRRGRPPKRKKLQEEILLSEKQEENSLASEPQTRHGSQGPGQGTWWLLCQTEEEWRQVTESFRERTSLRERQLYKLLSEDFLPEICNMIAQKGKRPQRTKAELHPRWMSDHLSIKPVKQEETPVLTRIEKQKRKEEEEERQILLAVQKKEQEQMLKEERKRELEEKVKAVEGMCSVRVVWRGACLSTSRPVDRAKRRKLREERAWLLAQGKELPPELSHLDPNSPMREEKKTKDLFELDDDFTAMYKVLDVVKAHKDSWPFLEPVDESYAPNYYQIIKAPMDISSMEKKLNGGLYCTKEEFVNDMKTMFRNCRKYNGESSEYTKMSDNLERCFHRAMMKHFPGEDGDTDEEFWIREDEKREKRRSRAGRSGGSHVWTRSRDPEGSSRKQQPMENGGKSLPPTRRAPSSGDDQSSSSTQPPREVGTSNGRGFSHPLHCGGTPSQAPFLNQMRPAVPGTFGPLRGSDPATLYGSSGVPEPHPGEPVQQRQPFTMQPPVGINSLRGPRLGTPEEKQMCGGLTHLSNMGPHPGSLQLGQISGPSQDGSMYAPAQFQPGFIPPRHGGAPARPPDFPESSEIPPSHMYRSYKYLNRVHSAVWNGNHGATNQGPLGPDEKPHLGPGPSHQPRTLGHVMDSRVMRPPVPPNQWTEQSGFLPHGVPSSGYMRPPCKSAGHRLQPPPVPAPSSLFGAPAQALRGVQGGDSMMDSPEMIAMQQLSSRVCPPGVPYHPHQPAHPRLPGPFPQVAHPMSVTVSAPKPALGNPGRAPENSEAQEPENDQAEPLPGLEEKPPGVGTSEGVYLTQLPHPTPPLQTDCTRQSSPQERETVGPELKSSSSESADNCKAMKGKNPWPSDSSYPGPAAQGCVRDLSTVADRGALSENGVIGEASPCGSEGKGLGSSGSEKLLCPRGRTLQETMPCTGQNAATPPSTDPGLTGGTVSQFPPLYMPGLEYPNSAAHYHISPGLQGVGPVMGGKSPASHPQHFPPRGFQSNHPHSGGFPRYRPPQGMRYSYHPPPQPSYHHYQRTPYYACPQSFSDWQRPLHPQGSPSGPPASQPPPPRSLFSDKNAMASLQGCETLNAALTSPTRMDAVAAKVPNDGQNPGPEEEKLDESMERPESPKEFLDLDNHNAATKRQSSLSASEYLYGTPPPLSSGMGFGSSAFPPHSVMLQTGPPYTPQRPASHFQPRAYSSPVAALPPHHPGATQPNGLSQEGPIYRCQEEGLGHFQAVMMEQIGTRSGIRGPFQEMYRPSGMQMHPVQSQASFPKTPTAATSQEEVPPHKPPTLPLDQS

Protein polybromo-1 = Protein polybromo-1 (Homo sapiens, UniProt Q86U86); test: Binding affinity to human PBRM1 bromodomain 5 assessed as residual activity at 300 nM by BROMOscan method relative to control
[8] = molecular target: ATPase family AAA domain-containing protein 2B (Homo sapiens, UniProt Q9ULI0); test: Binding affinity to human ATAD2B bromodomain assessed as dissociation constant by BROMOscan method
[9] = molecular target: Bromodomain-containing protein 3 (Homo sapiens, UniProt Q15059); test: Binding affinity to human BRD3 bromodomain 2 assessed as dissociation constant by BROMOscan method
[10] = molecular target: T2, Chromatin remodeling regulator CECR2; test: Binding affinity to human CECR2 bromodomain assessed as dissociation constant by BROMOscan method
Target sequence in this assay (Q9BXF3 whole entry): as the sequence (Q9BXF3 whole entry, looked up) above

[11] = molecular target: Histone acetyltransferase KAT2B (Homo sapiens, UniProt Q92831); test: Binding affinity to human PCAF bromodomain assessed as dissociation constant by BROMOscan method
SK-BR-3 [12] = test: Antiproliferative activity against human SK-BR-3 cells expressing ATAD2 assessed as inhibition of colony formation at 0.01 to 10 uM measured after 14 to 21 days by AlamarBlue staining based colony formation assay; format: functional, cell-based; details: dose 0.01-10 µM, time 14-21 day
SK-BR-3 [13] = test: Antiproliferative activity against human SK-BR-3 cells expressing BRD1 assessed as inhibition of colony formation at 0.01 to 10 uM measured after 14 to 21 days by alamarBlue based colony formation assay; format: functional, cell-based; details: dose 0.01-10 µM, time 14-21 day
SK-BR-3 [14] = test: Antiproliferative activity against human SK-BR-3 cells expressing BRD2 assessed as inhibition of colony formation at 0.01 to 10 uM measured after 14 to 21 days by alamarBlue based colony formation assay; format: functional, cell-based; details: dose 0.01-10 µM, time 14-21 day
Homo sapiens = organism: Homo sapiens; test: Selectivity ratio of IC50 for Inhibition of […] GST-ATAD2 BD (981 to 1108 residues) (unknown origin) expressed in Escherichia coli BL21 (DE3) to IC50 for Halo-tagged Histone H3.3 from Nanoluc-ATAD2 BD ([…] residues) (unknown origin) transfected in human HCT116 cells
EVSA-T = test: Antiproliferative activity against human EVSA-T cells expressing ATAD2 assessed as inhibition of colony formation at 0.01 to 10 uM measured after 14 to 21 days by AlamarBlue staining based colony formation assay; format: functional, cell-based; details: dose 0.01-10 µM, time 14-21 day

Chain of ATPase family AAA domain-containing protein 2B (Q9ULI0 whole entry, the tested form may be a part): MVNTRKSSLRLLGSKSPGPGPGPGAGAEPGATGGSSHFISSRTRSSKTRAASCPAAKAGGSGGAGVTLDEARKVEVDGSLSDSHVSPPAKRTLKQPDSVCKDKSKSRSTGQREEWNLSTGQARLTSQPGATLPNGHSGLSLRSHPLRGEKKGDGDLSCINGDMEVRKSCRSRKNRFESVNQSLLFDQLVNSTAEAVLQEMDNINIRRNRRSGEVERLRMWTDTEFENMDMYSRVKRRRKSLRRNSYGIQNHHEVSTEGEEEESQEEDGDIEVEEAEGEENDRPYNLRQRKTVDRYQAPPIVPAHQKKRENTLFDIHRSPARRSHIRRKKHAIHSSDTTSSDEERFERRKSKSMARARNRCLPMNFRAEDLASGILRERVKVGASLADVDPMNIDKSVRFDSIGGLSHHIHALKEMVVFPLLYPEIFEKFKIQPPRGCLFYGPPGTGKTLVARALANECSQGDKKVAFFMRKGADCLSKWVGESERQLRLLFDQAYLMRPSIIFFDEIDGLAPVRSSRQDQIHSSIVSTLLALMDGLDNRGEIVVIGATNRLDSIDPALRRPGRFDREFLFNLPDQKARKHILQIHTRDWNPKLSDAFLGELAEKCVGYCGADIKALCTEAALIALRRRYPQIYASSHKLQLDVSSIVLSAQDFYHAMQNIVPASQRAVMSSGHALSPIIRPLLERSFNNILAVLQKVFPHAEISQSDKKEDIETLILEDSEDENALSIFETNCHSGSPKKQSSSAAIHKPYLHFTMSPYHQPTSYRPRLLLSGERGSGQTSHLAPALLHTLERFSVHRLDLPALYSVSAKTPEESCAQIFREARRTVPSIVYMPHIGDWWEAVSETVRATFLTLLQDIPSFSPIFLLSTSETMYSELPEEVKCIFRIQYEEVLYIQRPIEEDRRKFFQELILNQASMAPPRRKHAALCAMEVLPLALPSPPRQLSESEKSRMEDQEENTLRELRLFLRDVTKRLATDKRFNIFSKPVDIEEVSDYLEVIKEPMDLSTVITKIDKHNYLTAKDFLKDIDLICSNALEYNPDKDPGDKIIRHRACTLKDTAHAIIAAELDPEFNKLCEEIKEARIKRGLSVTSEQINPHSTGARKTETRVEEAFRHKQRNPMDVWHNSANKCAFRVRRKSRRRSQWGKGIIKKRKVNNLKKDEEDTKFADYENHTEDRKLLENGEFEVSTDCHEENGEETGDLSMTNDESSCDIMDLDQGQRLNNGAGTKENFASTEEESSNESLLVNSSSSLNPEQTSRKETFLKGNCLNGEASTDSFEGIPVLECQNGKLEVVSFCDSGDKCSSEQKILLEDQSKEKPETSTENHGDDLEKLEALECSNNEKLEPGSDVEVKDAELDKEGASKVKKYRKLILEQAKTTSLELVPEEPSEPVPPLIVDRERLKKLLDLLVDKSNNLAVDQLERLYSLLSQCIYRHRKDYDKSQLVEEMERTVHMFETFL
Chain of Peregrin (Homo sapiens) (P55201 whole entry): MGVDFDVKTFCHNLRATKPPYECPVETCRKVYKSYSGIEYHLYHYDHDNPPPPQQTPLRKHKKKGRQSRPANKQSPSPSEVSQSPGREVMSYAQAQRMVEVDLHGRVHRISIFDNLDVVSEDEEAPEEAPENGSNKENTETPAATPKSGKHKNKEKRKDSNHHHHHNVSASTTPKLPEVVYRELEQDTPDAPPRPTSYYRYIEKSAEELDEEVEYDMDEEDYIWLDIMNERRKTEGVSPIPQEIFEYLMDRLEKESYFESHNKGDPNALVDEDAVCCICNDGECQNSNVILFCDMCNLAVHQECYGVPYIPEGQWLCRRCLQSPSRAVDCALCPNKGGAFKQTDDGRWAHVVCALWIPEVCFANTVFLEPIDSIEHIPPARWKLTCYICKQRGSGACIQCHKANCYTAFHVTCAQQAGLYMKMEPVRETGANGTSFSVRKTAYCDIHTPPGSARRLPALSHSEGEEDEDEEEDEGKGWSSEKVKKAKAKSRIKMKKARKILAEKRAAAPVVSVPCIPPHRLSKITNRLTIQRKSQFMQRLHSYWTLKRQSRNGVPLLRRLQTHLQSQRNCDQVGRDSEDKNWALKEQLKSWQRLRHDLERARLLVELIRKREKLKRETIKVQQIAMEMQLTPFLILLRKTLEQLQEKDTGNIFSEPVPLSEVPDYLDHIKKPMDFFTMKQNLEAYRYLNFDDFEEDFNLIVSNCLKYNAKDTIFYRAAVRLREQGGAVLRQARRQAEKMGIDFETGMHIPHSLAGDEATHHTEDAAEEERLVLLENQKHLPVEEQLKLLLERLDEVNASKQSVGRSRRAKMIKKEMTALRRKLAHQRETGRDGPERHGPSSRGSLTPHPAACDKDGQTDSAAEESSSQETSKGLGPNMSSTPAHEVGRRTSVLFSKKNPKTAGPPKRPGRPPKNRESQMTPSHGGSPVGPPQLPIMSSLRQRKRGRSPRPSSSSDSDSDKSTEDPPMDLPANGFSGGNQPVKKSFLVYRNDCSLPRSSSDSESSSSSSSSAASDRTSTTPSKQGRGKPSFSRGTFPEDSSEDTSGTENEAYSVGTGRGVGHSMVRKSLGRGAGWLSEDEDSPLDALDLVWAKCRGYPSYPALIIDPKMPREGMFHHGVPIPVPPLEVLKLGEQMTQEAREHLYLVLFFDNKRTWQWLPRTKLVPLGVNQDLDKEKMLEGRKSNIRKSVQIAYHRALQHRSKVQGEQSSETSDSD
Chain of Bromodomain-containing protein 7 (Homo sapiens) (Q9NPI1 whole entry): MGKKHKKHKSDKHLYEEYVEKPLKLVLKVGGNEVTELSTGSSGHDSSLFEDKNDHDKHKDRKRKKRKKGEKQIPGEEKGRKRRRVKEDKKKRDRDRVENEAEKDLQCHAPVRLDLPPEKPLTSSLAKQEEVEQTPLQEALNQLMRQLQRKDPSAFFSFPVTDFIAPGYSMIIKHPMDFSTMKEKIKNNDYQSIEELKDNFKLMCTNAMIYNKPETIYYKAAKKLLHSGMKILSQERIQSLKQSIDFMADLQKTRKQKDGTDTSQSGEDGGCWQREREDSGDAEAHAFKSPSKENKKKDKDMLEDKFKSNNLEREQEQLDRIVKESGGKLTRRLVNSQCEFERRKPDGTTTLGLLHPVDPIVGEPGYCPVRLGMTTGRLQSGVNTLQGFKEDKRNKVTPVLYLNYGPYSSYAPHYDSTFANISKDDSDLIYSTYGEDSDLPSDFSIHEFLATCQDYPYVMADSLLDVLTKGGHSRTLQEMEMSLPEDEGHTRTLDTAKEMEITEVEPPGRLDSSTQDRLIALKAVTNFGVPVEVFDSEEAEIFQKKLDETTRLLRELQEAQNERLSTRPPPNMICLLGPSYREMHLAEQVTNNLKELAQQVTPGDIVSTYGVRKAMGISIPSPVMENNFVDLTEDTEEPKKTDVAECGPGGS

IC50 [1]: 7 nM
IC50 [2]: > 25.1 µM
IC50 [3]: 10 µM
Activity [4]: 47%
Activity [5]: 73%
Activity [6]: 48%
Activity (Peregrin (Homo sapiens)): 79%
Activity [7]: 59%
Activity (Protein polybromo-1): 52%
Kd [8]: 7.94 nM
Kd [9]: 200 nM
Kd [10]: > 316 nM
Kd [11]: > 316 nM
Structure (SMILES): Cc1nnc2c(NC3CCN(CC(C)(C)F)CC3)cc(C(=O)N3[C@@H]4c5ccccc5C[C@H]3C(=O)N[C@@H]4C(C)C)nn12
Activity (SK-BR-3 [12]): Dose-Dependent Effect
Activity (SK-BR-3 [13]): inactive
Activity (SK-BR-3 [14]): inactive
Ratio IC50 (Homo sapiens): 20
Activity (EVSA-T): Dose-Dependent Effect
